Patent publication US7045283B2, “Methods of high-throughput screening for internalizing antibodies” (The Regents of the University of California, priority 2000, dated 2006)
In brackets after ≈: the same amount, converted by molar mass.

Legend:
[1] = in vitro; settings: BEND-3 endothelial cells expressing VEGF receptor
Procedure: Bovine endothelial cells (BEND-3) expressing vascular endothelial growth factor (VEGF) receptor were incubated (37° C., 6 hours) in the growth medium containing 0.03–90 microgram/mL of the free (i.e. non-encapsulated) vinorelbine, or vinorelbine encapsulated in the Ni-NTA-PEG-DSPE liposomes with or without 0.02 mg/niL of the intemalizing anti-VEGER scFv antibody 4G7 having a hexahistidine tag and a terminal cysteine group. The cells were post-incubated in the growth medium without the drug for another 72 hours, and the viability of the cells was determined by a conventional tetrasolium (MTT) assay.

[2] = Methotrexate encapsulation by reverse phase evaporation (direct sequestration) and leakage; assay type: physicochemical

Row | Compound | IC50 at 6 h [1] [µg/mL] | MTX loading efficiency [2]
1 | CCC1=C[C@@H]2CN(C1)Cc1c([nH]c3ccccc13)[C@@](C(=O)OC)(c1cc3c(cc1OC)N(C)[C@H]1[C@@](O)(C(=O)OC)[C@H](OC(C)=O)[C@]4(CC)C=CCN5CC[C@]31[C@@H]54)C2 [free vinorelbine, vinorelbine] | 0.67 (≈ 0.86 µM) | –
2 | CN(Cc1cnc2nc(N)nc(N)c2n1)c1ccc(C(=O)N[C@@H](CCC(=O)O)C(=O)O)cc1 [free methotrexate, methotrexate] | > 90 | 28.7–29.5%
